Experimental data taken from US20110217715A1, “GENE EXPRESSION IN DUCHENNE MUSCULAR DYSTROPHY” (CHILDREN'S HOSPITAL MEDICAL CENTER, priority 2008, published 2011).

Test system: mRNA expression in peripheral blood of individuals with DMD
Test: Whole-blood gene expression microarray: DMD administered deflazacort vs DMD administered prednisone
Type: in vivo, human
Conditions: deflazacort vs. prednisone
Experimental: Fifteen ml of blood was collected from each individual into 6 PAXgene® Vacutainer® tubes (PreAnalytiX, Germany) by antecubital fossa venipuncture. PAXgene® tubes contain a proprietary reagent that immediately stabilizes RNA, thus reducing RNA degradation and minimizing gene expression changes following phlebotomy. The tubes were then inverted 20 times, then remained undisturbed for 2 h at room temperature (about 19° C. to about 22° C.), and then stored at -70° C. until processed. Total RNA was isolated using the Paxgene® blood RNA kit (PreAnalytiX, Germany) according to the manufacturers instructions. The RNA isolated is from all cells in whole blood. Typical yields of total RNA isolated from about 7.5 ml of human whole blood were between 10 μg RNA and 40 μg RNA. RNA quality and purity was analyzed by spectrophotometry using the Nanodrop ND-1000, and RNA integrity was analyzed using the Agilent 2100 Bioanalyzer. […] Sample labeling, hybridization to chips, and image scanning were performed using standard Affymetrix protocols. For each whole blood sample from control individuals and individuals with DMD, total RNA was labeled using the One-Cycle Target Labeling protocol and hybridized to the arrays. […] Double-stranded cDNA synthesis, biotin-labeled cRNA synthesis, and cRNA fragmentation were performed according to the Affymetrix GeneChip Eukaryotic Expression Analysis protocol. The labeled, fragmented cRNA (15 μg) was hybridized at 45° C. overnight. After hybridization, the array was washed and stained. The arrays were scanned with an argon-ion laser at λ=570 nm, with a resolution of 3 μm/pixel (Affymetrix, Inc.). After scanning the array, the raw probe level values for each probe were saved in Affymetrix.cel files. […] Statistical analyses, including t-test analyses, unsupervised hierarchical clustering, and principal component analyses were conducted using Genespring 7.2 software ([…]® 7, Silicon Genetics, Redwood City Calif.). […] Corrections for multiple comparisons used a Benjamini-Hochberg False Discovery Rate (FDR) of 0.05, disclosed in Tang et al., J Cereb Blood Flow Metab 26 (2006) 1089, which is expressly incorporated by reference herein in its entirety. […] Sample processing and array hybridization, probe-level data analysis, and statistical analysis were identical to Example 1.

Compound: CC(=O)OCC(=O)[C@@]12N=C(C)O[C@@H]1C[C@H]1[C@@H]3CCC4=CC(=O)C=C[C@]4(C)[C@H]3[C@@H](O)C[C@@]12C [deflazacort]
- p-value (AV700030, Nucleic Acid No. 2063): 0.0254
- p-value (AV722693, Nucleic Acid No. 1994): 0.000689
- p-value (AW070431, Nucleic Acid No. 2113): 0.0198
- p-value (t-test, deflazacort vs. prednisone) (AW081561, Nucleic Acid No. 2012): 0.0484
- p-value (AW135013, Nucleic Acid No. 2109): 0.0166
- p-value (t-test, deflazacort vs. prednisone) (AW504458, Nucleic Acid No. 2032): 0.0109
- p-value (t-test, deflazacort vs prednisone) (AW590838, Nucleic Acid No. 2082): 0.0481
- p-value (t-test, deflazacort vs. prednisone) (AW978350, Nucleic Acid No. 2027): 0.0388
- p-value (BC001152, Nucleic Acid No. 2025): 0.0219
- p-value (t-test, deflazacort vs. prednisone) (BC003542, Nucleic Acid No. 2048): 0.00709
- p-value (BC006230, Nucleic Acid No. 2123): 0.0131
- p-value (BC006454, Nucleic Acid No. 1650): 0.0101
- p-value (t-test, deflazacort vs. prednisone) (BC012090, Nucleic Acid No. 2043): 0.0289
- p-value (BC017896, Nucleic Acid No. 487): 0.0133
- p-value (t-test, deflazacort vs. prednisone) (BC025237, Nucleic Acid No. 2047): 0.0274
- p-value (t-test, deflazacort vs. prednisone) (BC039454, Nucleic Acid No. 2011): 0.0311
- p-value (BC042832, Nucleic Acid No. 2103): 0.0214
- p-value (t-test, deflazacort vs prednisone) (BC043187, Nucleic Acid No. 2073): 0.0446
- p-value (BE207758, Nucleic Acid No. 1913): 0.00136
- p-value (BE348688, Nucleic Acid No. 1904): 0.0249
- p-value (BE439987, Nucleic Acid No. 1711): 0.0106
- p-value (BE465380, Nucleic Acid No. 1911): 0.0346
- p-value (BE550881, Nucleic Acid No. 2102): 0.0423
- p-value (t-test, deflazacort vs. prednisone) (BE563442, Nucleic Acid No. 2062): 0.00559
- p-value (BE727883, Nucleic Acid No. 2120): 0.0383
- p-value (t-test, deflazacort vs. prednisone) (BE880245, Nucleic Acid No. 2033): 0.00733
- p-value (t-test, deflazacort vs prednisone) (BE964989, Nucleic Acid No. 2085): 0.0484
- p-value (t-test, deflazacort vs. prednisone) (BF338947, Nucleic Acid No. 2056): 0.0148
- p-value (BF477544, Nucleic Acid No. 1895): 0.0499
- p-value (t-test, deflazacort vs prednisone) (BF514079, Nucleic Acid No. 1363): 0.0432
- p-value (BF575213, Nucleic Acid No. 2122): 0.00608
- p-value (t-test, deflazacort vs. prednisone) (BF694956, Nucleic Acid No. 2041): 0.0262
- p-value (t-test, deflazacort vs prednisone) (BG029530, Nucleic Acid No. 2074): 0.000753
- p-value (t-test, deflazacort vs prednisone) (BG249565, Nucleic Acid No. 2087): 0.00518
- p-value (D87291, Nucleic Acid No. 2077): 0.0322
- p-value (H12280, Nucleic Acid No. 2098): 0.038
- p-value (L18865, Nucleic Acid No. 2114): 0.034
- p-value (t-test, deflazacort vs. prednisone) (M15330, Nucleic Acid No. 2060): 0.0137
- p-value (t-test, deflazacort vs prednisone) (M35999, Nucleic Acid No. 2071): 0.014
- p-value (t-test, deflazacort vs. prednisone) (M60626, Nucleic Acid No. 2020): 0.0333
- p-value (N36408, Nucleic Acid No. 2019): 0.0384
- p-value (N59653, Nucleic Acid No. 1900): 0.044
- p-value (t-test, deflazacort vs prednisone) (N66633, Nucleic Acid No. 2090): 0.0434
- p-value (t-test, deflazacort vs. prednisone) (NM_000404, Nucleic Acid No. 2029): 0.000522
- p-value (t-test, deflazacort vs prednisone) (NM_000419, Nucleic Acid No. 2070): 0.0421
- p-value (NM_000484, Nucleic Acid No. 1261): 0.00856
- p-value (NM_000565, Nucleic Acid No. 2064): 0.0489
- p-value (t-test, deflazacort vs. prednisone) (NM_000576, Nucleic Acid No. 2059): 0.00127
- p-value (NM_001109, Nucleic Acid No. 1899): 0.0468
- p-value (NM_001154, Nucleic Acid No. 1902): 0.0116
- p-value (t-test, deflazacort vs. prednisone) (NM_001456, Nucleic Acid No. 2015): 0.0172
- p-value (t-test, deflazacort vs. prednisone) (NM_001553, Nucleic Acid No. 2057): 0.0297
- p-value (t-test, deflazacort vs. prednisone) (NM_001557, Nucleic Acid No. 2065): 0.0421
- p-value (NM_001637, Nucleic Acid No. 1903): 0.0269
- p-value (NM_001659, Nucleic Acid No. 1908): 0.00749
- p-value (NM_001690, Nucleic Acid No. 1917): 0.021
- p-value (t-test, deflazacort vs. prednisone) (NM_002068, Nucleic Acid No. 2030): 0.00544
- p-value (t-test, deflazacort vs. prednisone) (NM_002087, Nucleic Acid No. 2038): 0.0294
- p-value (t-test, deflazacort vs. prednisone) (NM_002110, Nucleic Acid No. 2040): 0.0352
- p-value (t-test, deflazacort vs. prednisone) (NM_002155, Nucleic Acid No. 2049): 0.0206
- p-value (t-test, deflazacort vs prednisone) (NM_002199, Nucleic Acid No. 2068): 0.0118
- p-value (t-test, deflazacort vs prednisone) (NM_002229, Nucleic Acid No. 2076): 0.0299
- p-value (NM_003644, Nucleic Acid No. 2023): 0.00498
- p-value (NM_003879, Nucleic Acid No. 1948): 0.0159
- p-value (NM_004041, Nucleic Acid No. 1914): 0.0324
- p-value (t-test, deflazacort vs. prednisone) (NM_004517, Nucleic Acid No. 2066): 0.0161
- p-value (NM_004735, Nucleic Acid No. 2106): 0.0293
